This assay concerns the target T1, EZH2 (Homo sapiens, UniProt Q15910).
T1 construct: Protocol of the Cellular Assay of Target Protein Degradation (VCaP Cells, ELISA); endogenous in cells; host or cells: VCaP cells
The assay is described as follows: Cellular assay of target protein degradation (VCaP cells, ELISA). It is filed as cell-based. As to conditions: 4 hours, protein degradation range at indicated concentration (relative to DMSO control). The method, then: Protocol of the Cellular Assay of Target Protein Degradation (VCaP Cells, ELISA).
For detection Cell Signaling PathScan Sandwich ELISA Catalog #12850 Lot 11 was used. VCaP cells were cultured in ATCC DMEM+ATCC FBS and plated 40,000/well 100 μl/well in RPMI P/S with 5% CSS Omega (bovine) serum into a 96 well plate. The cells were grown for a minimum of 3 days, dosed with compounds in 0.1% DMSO (diluted with 5% CSS) and incubated with aspiration for 4 hours. 100 μl of 1× Cell Signaling lysis buffer #9803 (36 mL dH2O+4 mL Cell Signaling lysis buffer) was added. The incubation was placed on cold room shaker for 10 minutes at speed 8-9. 5 μl to 100 μL of Diluent was transferred to ELISA plate (0.15 μg/mL−0.075 μg/mL) and stored at 4° C. overnight on cold room shaker speed 5 (gentle swirl) and then shaken next morning at 37° C. for 30 minutes. The preparation was washed 4×200 μl with ELISA wash buffer and aspirated with eight-channel aspirator. 100 μl/well of target protein detection antibody was added after, which the preparation was covered and shaken at 37° C. for 1 hour. 100 μl TMB was added, and the mixture was shaken for 5 min while under observation. When TMB turned light blue, 100 μl of Stop solution was added, and the mixture was shaken and read at 450 nm. Also read at 562 nm for background subtraction.
(ELISA stands for enzyme-linked immunosorbent assay.)
T1 sequence (Q15910 whole entry): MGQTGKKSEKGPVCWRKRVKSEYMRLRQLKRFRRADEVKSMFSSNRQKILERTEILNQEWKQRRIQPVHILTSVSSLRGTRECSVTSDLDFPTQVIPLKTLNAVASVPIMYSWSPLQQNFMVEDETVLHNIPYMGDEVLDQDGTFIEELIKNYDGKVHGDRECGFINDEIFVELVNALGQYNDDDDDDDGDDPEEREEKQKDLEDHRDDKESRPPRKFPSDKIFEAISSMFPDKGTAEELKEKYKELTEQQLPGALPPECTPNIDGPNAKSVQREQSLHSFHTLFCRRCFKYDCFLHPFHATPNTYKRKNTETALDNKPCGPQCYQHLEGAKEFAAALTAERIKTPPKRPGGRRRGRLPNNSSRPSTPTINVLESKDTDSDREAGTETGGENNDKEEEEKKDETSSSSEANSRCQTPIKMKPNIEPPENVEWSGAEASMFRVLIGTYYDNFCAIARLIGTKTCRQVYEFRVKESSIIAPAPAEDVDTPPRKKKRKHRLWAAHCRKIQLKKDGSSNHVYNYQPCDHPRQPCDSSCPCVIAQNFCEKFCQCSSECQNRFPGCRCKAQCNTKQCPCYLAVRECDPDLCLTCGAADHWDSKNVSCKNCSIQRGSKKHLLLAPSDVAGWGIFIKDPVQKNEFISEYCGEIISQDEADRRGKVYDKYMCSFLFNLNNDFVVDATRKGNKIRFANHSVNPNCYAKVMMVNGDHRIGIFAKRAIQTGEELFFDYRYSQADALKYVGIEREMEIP
T1 sequence (O75530 whole entry partner): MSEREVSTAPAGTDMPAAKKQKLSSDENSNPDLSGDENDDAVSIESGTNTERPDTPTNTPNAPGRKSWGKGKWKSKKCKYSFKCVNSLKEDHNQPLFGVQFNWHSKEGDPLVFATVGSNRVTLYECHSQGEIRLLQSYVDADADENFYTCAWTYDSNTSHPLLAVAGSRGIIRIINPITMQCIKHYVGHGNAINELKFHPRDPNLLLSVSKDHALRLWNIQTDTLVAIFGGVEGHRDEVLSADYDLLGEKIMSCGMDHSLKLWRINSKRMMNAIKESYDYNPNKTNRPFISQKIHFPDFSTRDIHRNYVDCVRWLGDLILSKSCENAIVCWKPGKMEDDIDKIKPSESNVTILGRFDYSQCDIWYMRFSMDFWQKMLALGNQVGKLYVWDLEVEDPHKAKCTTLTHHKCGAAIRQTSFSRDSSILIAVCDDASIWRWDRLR
T1 sequence (Q15022 whole entry partner): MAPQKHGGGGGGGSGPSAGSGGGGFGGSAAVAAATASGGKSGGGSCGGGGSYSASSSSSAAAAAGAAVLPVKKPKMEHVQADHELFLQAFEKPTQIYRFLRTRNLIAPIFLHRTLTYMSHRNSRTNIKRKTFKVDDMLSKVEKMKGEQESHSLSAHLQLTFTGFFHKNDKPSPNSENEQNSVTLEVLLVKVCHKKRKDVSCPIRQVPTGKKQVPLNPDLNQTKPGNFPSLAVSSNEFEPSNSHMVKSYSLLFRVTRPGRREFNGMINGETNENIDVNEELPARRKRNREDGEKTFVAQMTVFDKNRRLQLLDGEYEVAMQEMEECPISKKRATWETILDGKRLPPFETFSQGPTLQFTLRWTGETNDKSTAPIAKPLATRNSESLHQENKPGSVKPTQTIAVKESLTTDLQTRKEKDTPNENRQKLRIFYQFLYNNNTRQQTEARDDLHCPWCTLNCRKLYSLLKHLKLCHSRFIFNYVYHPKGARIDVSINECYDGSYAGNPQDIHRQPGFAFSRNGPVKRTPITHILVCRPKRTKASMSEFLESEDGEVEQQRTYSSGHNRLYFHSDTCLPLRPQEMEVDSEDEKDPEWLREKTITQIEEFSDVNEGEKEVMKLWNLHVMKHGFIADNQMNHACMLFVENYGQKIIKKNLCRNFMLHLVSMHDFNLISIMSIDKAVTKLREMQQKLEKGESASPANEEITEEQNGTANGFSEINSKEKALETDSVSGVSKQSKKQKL
On to `CCN(c1cc(-c2ccc(OCCCCOc3ccc4c(c3)C(=O)N(C3CCC(=O)NC3=O)C4=O)cc2)cc(C(=O)NCc2c(C)cc(C)[nH]c2=O)c1C)C1CCOCC1` (stereo not shown) [Compound 60, N-[(4,6-dimethyl-2-oxo-1,2-dihydropyridin-3-yl)methyl]-5-[4-(4-{[2-(2,6-dioxopiperidin-3-yl)-1,3-dioxo-2,3-dihydro-1H-isoindol-5-yl]oxy}butoxy)phenyl]-3-[ethyl(oxan-4-yl)amino]-2-methylbenzamide], for which the “percent target protein degradation class” value is given as “A (A = degradation more than 60%)”.

As to `CCN(c1cc(-c2ccc(N3CCN(CCCCOCC(=O)N[C@H](C(=O)N4C[C@H](O)C[C@H]4C(=O)N[C@@H](C)c4ccc(-c5scnc5C)cc4)C(C)(C)C)CC3)cc2)cc(C(=O)NCc2c(C)cc(C)[nH]c2=O)c1C)C1CCOCC1` [Compound 59, (2S,4R)-1-((S)-2-(2-(4-(4-(3′-(((4,6-dimethyl-2-oxo-1,2-dihydropyridin-3-yl)methyl)carbamoyl)-5′-(ethyl(tetrahydro-2H-pyran-4-yl)amino)-4′-methyl-[1,1′-biphenyl]-4-yl)piperazin-1-yl)butoxy)acetamido)-3,3-dimethylbutanoyl)-4-hydroxy-N-((S)-1-(4-(4-methylthiazol-5-yl)phenyl)ethyl)pyrrolidine-2-carboxamide], the “percent target protein degradation class” value is “B (B = degradation between 30% and 60%)”.

For `CCN(c1cc(-c2ccc(OCCOCCOCCOCCOCCOc3cc(-c4scnc4C)ccc3CNC(=O)[C@@H]3C[C@@H](O)CN3C(=O)[C@H](C(C)C)N3Cc4ccccc4C3=O)cc2)cc(C(=O)NCc2c(C)cc(C)[nH]c2=O)c1C)C1CCOCC1` [Compound 35, (2S,4R)-N-{[2-({1-[4-(3-{[(4,6-dimethyl-2-oxo-1,2-dihydropyridin-3-yl)methyl]carbamoyl}-5-[ethyl(oxan-4-yl)amino]-4-methylphenyl)phenyl]-1,4,7,10,13-pentaoxapentadecan-15-yl}oxy)-4-(4-methyl-1,3-thiazol-5-yl)phenyl]methyl}-4-hydroxy-1-[(2S)-3-methyl-2-(1-oxo-2,3-dihydro-1H-isoindol-2-yl)butanoyl]pyrrolidine-2-carboxamide], the “percent target protein degradation class” value was “B (B = degradation between 30% and 60%)”.

Turning to `Cc1cc(C)c(CNC(=O)c2cc(-c3ccc(CN4CCN(CCOCCCCOCCCCOCC(=O)N[C@H](C(=O)N5C[C@H](O)C[C@H]5C(=O)NCc5ccc(-c6scnc6C)cc5)C(C)(C)C)CC4)cc3)cc3c2ccn3C2CCCC2)c(=O)[nH]1` [Compound 5, 1-cyclopentyl-N-[(4,6-dimethyl-2-oxo-1,2-dihydropyridin-3-yl)methyl]-6-(4-{[4-(2-{4-[4-({[(2S)-1-[(2S,4R)-4-hydroxy-2-({[4-(4-methyl-1,3-thiazol-5-yl)phenyl]methyl}carbamoyl)pyrrolidin-1-yl]-3,3-dimethyl-1-oxobutan-2-yl]carbamoyl}methoxy)butoxy]butoxy}ethyl)piperazin-1-yl]methyl}phenyl)-1H-indole-4-carboxamide], the “percent target protein degradation class” value is “B (B = degradation between 30% and 60%)”.

Turning to `Cc1cc(C)c(CNC(=O)c2c(C)n(C(C)C3CCN(C(=O)COCCOCCOCCOCCNc4cccc5c4C(=O)N(C4CCC(=O)NC4=O)C5=O)CC3)c3ccccc23)c(=O)[nH]1` (stereo not shown) [Compound 10, N-[(4,6-dimethyl-2-oxo-1,2-dihydropyridin-3-yl)methyl]-1-[1-(1-{1-[2-(2,6-dioxopiperidin-3-yl)-1,3-dioxo-2,3-dihydro-1H-isoindol-4-yl]-4,7,10,13-tetraoxa-1-azapentadecanoyl}piperidin-4-yl)ethyl]-2-methyl-1H-indole-3-carboxamide], the “percent target protein degradation class” value is “B (B = degradation between 30% and 60%)”.

Take `CCN(c1cc(-c2ccc(OCCOCCOc3ccc4c(c3)C(=O)N(C3CCC(=O)NC3=O)C4=O)cc2)cc(C(=O)NCc2c(C)cc(C)[nH]c2=O)c1C)C1CCOCC1` (stereo not shown) [Compound 57, N-[(4,6-dimethyl-2-oxo-1,2-dihydropyridin-3-yl)methyl]-5-{4-[2-(2-{[2-(2,6-dioxopiperidin-3-yl)-1,3-dioxo-2,3-dihydro-1H-isoindol-5-yl]oxy}ethoxy)ethoxy]phenyl}-3-[ethyl(oxan-4-yl)amino]-2-methylbenzamide]: the “percent target protein degradation class” value is “B (B = degradation between 30% and 60%)”.

On to `CCN(c1cc(-c2ccc(OCCCCOc3cc(-c4scnc4C)ccc3CNC(=O)[C@@H]3C[C@@H](O)CN3C(=O)[C@H](C(C)C)N3Cc4ccccc4C3=O)cc2)cc(C(=O)NCc2c(C)cc(C)[nH]c2=O)c1C)C1CCOCC1` [Compound 63, (2S,4R)-N-[(2-{4-[4-(3-{[(4,6-dimethyl-2-oxo-1,2-dihydropyridin-3-yl)methyl]carbamoyl}-5-[ethyl(oxan-4-yl)amino]-4-methylphenyl)phenoxy]butoxy}-4-(4-methyl-1,3-thiazol-5-yl)phenyl)methyl]-4-hydroxy-1-[(2S)-3-methyl-2-(1-oxo-2,3-dihydro-1H-isoindol-2-yl)butanoyl]pyrrolidine-2-carboxamide], for which the “percent target protein degradation class” value is “B (B = degradation between 30% and 60%)”.

As to `CCN(c1cc(-c2ccc(OCCOCCOCCOCCOCCOCCOCC(=O)N[C@H](C(=O)N3C[C@H](O)C[C@H]3C(=O)NCc3ccc(-c4scnc4C)cc3)C(C)(C)C)cc2)cc(C(=O)NCc2c(C)cc(C)[nH]c2=O)c1C)C1CCOCC1` [Compound 16, (2S,4R)-1-[(2S)-2-{1-[4-(3-{[(4,6-dimethyl-2-oxo-1,2-dihydropyridin-3-yl)methyl]carbamoyl}-5-[ethyl(oxan-4-yl)amino]-4-methylphenyl)phenyl]-1,4,7,10,13,16,19-heptaoxahenicosan-21-amido}-3,3-dimethylbutanoyl]-4-hydroxy-N-{[4-(4-methyl-1,3-thiazol-5-yl)phenyl]methyl}pyrrolidine-2-carboxamide], the “percent target protein degradation class” value is “B (B = degradation between 30% and 60%)”.

Turning to `CCN(c1cc(-c2ccc(OCCOCCOCCOCCOCCOc3ccc(-c4csc([C@@H]5CCCN5C(=O)[C@@H](NC(=O)[C@H](C)NC)C5CCCCC5)n4)c4ccccc34)cc2)cc(C(=O)NCc2c(C)cc(C)[nH]c2=O)c1C)C1CCOCC1` [Compound 30, 5-(4-{[1-(4-{2-[(2S)-1-[(2S)-2-cyclohexyl-2-[(2S)-2-(methylamino)propanamido]acetyl]pyrrolidin-2-yl]-1,3-thiazol-4-yl}naphthalen-1-yl)-1,4,7,10,13-pentaoxapentadecan-15-yl]oxy}phenyl)-N-[(4,6-dimethyl-2-oxo-1,2-dihydropyridin-3-yl)methyl]-3-[ethyl(oxan-4-yl)amino]-2-methylbenzamide], the “percent target protein degradation class” value was “B (B = degradation between 30% and 60%)”.

In the case of `CCN(c1cc(-c2ccc(OCCCCOc3ccc4c(c3)C(=O)N([C@H](C(=O)N3C[C@H](O)C[C@H]3C(=O)N[C@@H](C)c3ccc(-c5scnc5C)cc3)C(C)C)C4)cc2)cc(C(=O)NCc2c(C)cc(C)[nH]c2=O)c1C)C1CCOCC1` [Compound 102], the “percent target protein degradation class” value is “B (B = degradation between 30% and 60%)”.

As for `CCN(c1cc(-c2ccc(OCCOCCOCCOc3cc(-c4scnc4C)ccc3CNC(=O)[C@@H]3C[C@@H](O)CN3C(=O)[C@H](C(C)C)N3Cc4ccccc4C3=O)cc2)cc(C(=O)NCc2c(C)cc(C)[nH]c2=O)c1C)C1CCOCC1` [Compound 37, (2S,4R)-N-({2-[2-(2-{2-[4(3-{[(4,6-dimethyl-2-oxo-1,2-dihydropyridin-3-yl)methyl]carbamoyl}-5-[ethyl(oxan-4-yl)amino]-4-methylphenyl)phenoxy]ethoxy}ethoxy)ethoxy]-4-(4-methyl-1,3-thiazol-5-yl)phenyl}methyl)-4-hydroxy-1-[(2S)-3-methyl-2-(1-oxo-2,3-dihydro-1H-isoindol-2-yl)butanoyl]pyrrolidine-2-carboxamide], the “percent target protein degradation class” value is “A (A = degradation more than 60%)”.

For the compound `CCN(c1cc(-c2ccc(OCCOCCOCCOCCOCCOCCOCCNc3cccc4c3C(=O)N(C3CCC(=O)NC3=O)C4=O)cc2)cc(C(=O)NCc2c(C)cc(C)[nH]c2=O)c1C)C1CCOCC1` (stereo not shown) [Compound 20, N-[(4,6-dimethyl-2-oxo-1,2-dihydropyridin-3-yl)methyl]-5-[4-({1-[2-(2,6-dioxopiperidin-3-yl)-1,3-dioxo-2,3-dihydro-1H-isoindol-4-yl]-4,7,10,13,16,19-hexaoxa-1-azahenicosan-21-yl}oxy)phenyl]-3-[ethyl(oxan-4-yl)amino]-2-methylbenzamide], the “percent target protein degradation class” value was “B (B = degradation between 30% and 60%)”.

With `CCN(c1cc(-c2ccc(OCCCOc3ccc4c(c3)C(=O)N([C@@H](C(=O)N3C[C@H](O)C[C@H]3C(=O)N[C@@H](C)c3ccc(-c5scnc5C)cc3)C(C)C)C4)cc2)cc(C(=O)NCc2c(C)cc(C)[nH]c2=O)c1C)C1CCOCC1` [Compound 97, (2S,4R)-1-((R)-2-(6-(3-((3′-(((4,6-dimethyl-2-oxo-1,2-dihydropyridin-3-yl)methyl)carbamoyl)-5′-(ethyl(tetrahydro-2H-pyran-4-yl)amino)-4′-methyl-[1,1′-biphenyl]-4-yl)oxy)propoxy)-1-oxoisoindolin-2-yl)-3-methylbutanoyl)-4-hydroxy-N-((S)-1-(4-(4-methylthiazol-5-yl)phenyl)ethyl)pyrrolidine-2-carboxamide], the “percent target protein degradation class” value is “B (B = degradation between 30% and 60%)”.
